Measurements reported in the supplement of paper PMC10307832.

Assays:
Experiment in all cases: relative viability (nuclei count vs DMSO), 5 days (fraction); higher = more cells survive
[1] = system: EMC-BAC-2
Outline: (§1)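 Lung cancer cell lines were seeded in 1536-well plates and dosed by pin tool the next day, with either a single drug or a fixed anchor-drug dose combined with five library-drug doses (not always all listed) spaced in √10 steps. Five days later, one step fixed the cells and stained their nuclei (final 0.05% Triton X-100, 1% formaldehyde, 1 ug/ml Hoechst), and nuclei were counted on 4× images. Relative viability is the nuclei count in treated wells divided by the count in vehicle wells, and each value is the median of duplicate plates.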

[2] = system: HOP-62
Outline: as §1

[3] = system: NCI-H1975
Outline: as §1

[4] = system: NCI-H322M
Outline: as §1

[5] = system: HCC-78
Outline: as §1

[6] = system: NCI-H2085
Outline: as §1

[7] = system: LXF-289
Outline: as §1

[8] = system: HCC-15
Outline: as §1

[9] = system: NCI-H522
Outline: as §1

[10] = system: NCI-H2126
Outline: as §1

[11] = system: NCI-H1755
Outline: as §1

[12] = system: UMC-11
Outline: as §1

[13] = system: NCI-H1915
Outline: as §1

[14] = system: NCI-H2023
Outline: as §1

[15] = system: NCI-H441
Outline: as §1

[16] = system: COR-L 105
Outline: as §1

[17] = system: ChaGo-K-1
Outline: as §1

[18] = system: ABC-1
Outline: as §1

[19] = system: CAL-12T
Outline: as §1

[20] = system: NCI-H3122
Outline: as §1

[21] = system: NCI-H358
Outline: as §1

[22] = system: NCI-H1993
Outline: as §1

[23] = system: NCI-H1666
Outline: as §1

[24] = system: EPLC-272H
Outline: as §1

## C[C@@H]1CN(CC(=O)Nc2ccc3c(c2)Cc2cccc(-c4cc(=O)cc(N5CCOCC5)o4)c2S3)C[C@H](C)O1 + Cc1nc(Nc2ncc(C(=O)Nc3c(C)cccc3Cl)s2)cc(N2CCN(CCO)CC2)n1 [Dasatinib] (partner 0.075 µM)
[1]; first compound 0.04 µM
  relative viability: 0.386
[1]; first compound 0.1265 µM
  relative viability: 0.34
[1]; first compound 0.4 µM
  relative viability: 0.394
[1]; first compound 4 µM
  relative viability: 0.413
[2]; first compound 0.04 µM
  relative viability: 0.664
[2]; first compound 0.1265 µM
  relative viability: 0.57
[2]; first compound 0.4 µM
  relative viability: 0.687
[2]; first compound 4 µM
  relative viability: 0.518
[3]; first compound 0.04 µM
  relative viability: 0.378
[3]; first compound 0.1265 µM
  relative viability: 0.39
[3]; first compound 0.4 µM
  relative viability: 0.368
[3]; first compound 4 µM
  relative viability: 0.249
[4]; first compound 0.04 µM
  relative viability: 0.277
[4]; first compound 0.1265 µM
  relative viability: 0.262
[4]; first compound 0.4 µM
  relative viability: 0.26
[4]; first compound 4 µM
  relative viability: 0.24
[5]; first compound 0.04 µM
  relative viability: 0.366
[5]; first compound 0.1265 µM
  relative viability: 0.363
[5]; first compound 0.4 µM
  relative viability: 0.362
[5]; first compound 4 µM
  relative viability: 0.519
[6]; first compound 0.04 µM
  relative viability: 0.222
[6]; first compound 0.1265 µM
  relative viability: 0.245
[6]; first compound 0.4 µM
  relative viability: 0.235
[6]; first compound 4 µM
  relative viability: 0.247
[7]; first compound 0.04 µM
  relative viability: 0.185
[7]; first compound 0.1265 µM
  relative viability: 0.223
[7]; first compound 0.4 µM
  relative viability: 0.203
[7]; first compound 4 µM
  relative viability: 0.232
[8]; first compound 0.04 µM
  relative viability: 0.659
[8]; first compound 0.1265 µM
  relative viability: 0.6
[8]; first compound 0.4 µM
  relative viability: 0.531
[8]; first compound 4 µM
  relative viability: 0.455
[9]; first compound 0.04 µM
  relative viability: 0.775
[9]; first compound 0.1265 µM
  relative viability: 0.773
[9]; first compound 0.4 µM
  relative viability: 0.806
[9]; first compound 4 µM
  relative viability: 0.828
[10]; first compound 0.04 µM
  relative viability: 0.607
[10]; first compound 0.1265 µM
  relative viability: 0.604
[10]; first compound 0.4 µM
  relative viability: 0.467
[10]; first compound 4 µM
  relative viability: 0.418
[11]; first compound 0.04 µM
  relative viability: 0.455
[11]; first compound 0.1265 µM
  relative viability: 0.397
[11]; first compound 0.4 µM
  relative viability: 0.427
[11]; first compound 4 µM
  relative viability: 0.37
[12]; first compound 0.04 µM
  relative viability: 0.475
[12]; first compound 0.1265 µM
  relative viability: 0.478
[12]; first compound 0.4 µM
  relative viability: 0.505
[12]; first compound 4 µM
  relative viability: 0.448
[13]; first compound 0.04 µM
  relative viability: 0.307
[13]; first compound 0.1265 µM
  relative viability: 0.308
[13]; first compound 0.4 µM
  relative viability: 0.319
[13]; first compound 4 µM
  relative viability: 0.278
[14]; first compound 0.04 µM
  relative viability: 0.638
[14]; first compound 0.1265 µM
  relative viability: 0.512
[14]; first compound 0.4 µM
  relative viability: 0.415
[14]; first compound 4 µM
  relative viability: 0.342
[15]; first compound 0.04 µM
  relative viability: 0.762
[15]; first compound 0.1265 µM
  relative viability: 0.46
[15]; first compound 0.4 µM
  relative viability: 0.62
[15]; first compound 4 µM
  relative viability: 0.538
[16]; first compound 0.04 µM
  relative viability: 0.348
[16]; first compound 0.1265 µM
  relative viability: 0.413
[16]; first compound 0.4 µM
  relative viability: 0.383
[16]; first compound 4 µM
  relative viability: 0.336
[17]; first compound 0.04 µM
  relative viability: 0.603
[17]; first compound 0.1265 µM
  relative viability: 0.617
[17]; first compound 0.4 µM
  relative viability: 0.553
[17]; first compound 4 µM
  relative viability: 0.524
[18]; first compound 0.1265 µM
  relative viability: 0.571
[18]; first compound 0.4 µM
  relative viability: 0.447
[18]; first compound 4 µM
  relative viability: 0.504
[19]; first compound 0.04 µM
  relative viability: 0.515
[19]; first compound 0.1265 µM
  relative viability: 0.535
[19]; first compound 0.4 µM
  relative viability: 0.429
[19]; first compound 4 µM
  relative viability: 0.2
[20]; first compound 0.04 µM
  relative viability: 0.797
[20]; first compound 0.1265 µM
  relative viability: 0.838
[20]; first compound 0.4 µM
  relative viability: 0.827
[20]; first compound 4 µM
  relative viability: 0.844
[21]; first compound 0.04 µM
  relative viability: 0.2
[21]; first compound 0.1265 µM
  relative viability: 0.163
[21]; first compound 0.4 µM
  relative viability: 0.144
[21]; first compound 4 µM
  relative viability: 0.157
[22]; first compound 0.04 µM
  relative viability: 0.643
[22]; first compound 0.1265 µM
  relative viability: 0.626
[22]; first compound 0.4 µM
  relative viability: 0.556
[22]; first compound 4 µM
  relative viability: 0.641
[23]; first compound 0.04 µM
  relative viability: 0.831
[23]; first compound 0.1265 µM
  relative viability: 0.805
[23]; first compound 0.4 µM
  relative viability: 0.905
[23]; first compound 4 µM
  relative viability: 0.788
[24]; first compound 0.04 µM
  relative viability: 0.459
[24]; first compound 0.1265 µM
  relative viability: 0.284
[24]; first compound 0.4 µM
  relative viability: 0.319
[24]; first compound 4 µM
  relative viability: 0.341
